Measurements: ChEMBL document CHEMBL5724914, “Linking interpersonal differences in gut microbiota composition and drug biotransformation activity” (2024)

What was measured:
[1] = (§1) The drug is tested on Z-009 corresponding to pig gut metagenome with ENA study accession number: PRJEB37062 and ENA sample accession number: ERS12561809 for biotransformation under anaerobic condition. The drug concentrations were measured over 9 timepoints collected between 0 and 24 hours of incubation by liquid-chromatography-coupled mass spectrometry (LC–MS); conditions: 2 µM
[2] = as §1, with “Z-002” for “Z-009”, “rabbit” for “pig”, “ERS12561802” for “ERS12561809”; conditions: 2 µM
[3] = as §1, with “WLS-310” for “Z-009”, “human” for “pig”, “ERS12561785” for “ERS12561809”; conditions: 2 µM
[4] = as §1, with “WLS-240” for “Z-009”, “human” for “pig”, “ERS12561773” for “ERS12561809”; conditions: 2 µM
[5] = as §1, with “WLS-220” for “Z-009”, “human” for “pig”, “ERS12561769” for “ERS12561809”; conditions: 2 µM
[6] = as §1, with “WLS-170” for “Z-009”, “human” for “pig”, “ERS12561762” for “ERS12561809”; conditions: 2 µM
[7] = as §1, with “WLS-098” for “Z-009”, “human” for “pig”, “ERS12561754” for “ERS12561809”; conditions: 2 µM
[8] = as §1, with “WLS-039” for “Z-009”, “human” for “pig”, “ERS12561746” for “ERS12561809”; conditions: 2 µM
[9] = as §1, with “WLS-010” for “Z-009”, “human” for “pig”, “ERS12561743” for “ERS12561809”; conditions: 2 µM
[10] = as §1, with “WLS-006” for “Z-009”, “human” for “pig”, “ERS12561741” for “ERS12561809”; conditions: 2 µM
[11] = human gut metagenome, 24 h, 2 µM
[12] = human gut metagenome, 24 h, 2 µM; remark: listed apart in the source
[13] = human gut metagenome, 24 h, 2 µM; remark: listed apart in the source
[14] = human gut metagenome, 24 h, 2 µM; remark: listed apart in the source
[15] = human gut metagenome, 24 h, 2 µM; remark: listed apart in the source
[16] = human gut metagenome, 24 h, 2 µM; remark: listed apart in the source
[17] = human gut metagenome, 24 h, 2 µM; remark: listed apart in the source
[18] = human gut metagenome, 24 h, 2 µM; remark: listed apart in the source
[19] = human gut metagenome, 24 h, 2 µM; remark: listed apart in the source
[20] = human gut metagenome, 24 h, 2 µM; remark: listed apart in the source
Also: call rule not given here.

Compound	Bacterial Biotransformation [1]	Bacterial Biotransformation [2]	Bacterial Biotransformation [3]	Bacterial Biotransformation [4]	Bacterial Biotransformation [5]	Bacterial Biotransformation [6]	Bacterial Biotransformation [7]	Bacterial Biotransformation [8]	Bacterial Biotransformation [9]	Bacterial Biotransformation [10]	Bacterial Biotransformation [11]	Bacterial Biotransformation [12]	Bacterial Biotransformation [13]	Bacterial Biotransformation [14]	Bacterial Biotransformation [15]	Bacterial Biotransformation [16]	Bacterial Biotransformation [17]	Bacterial Biotransformation [18]	Bacterial Biotransformation [19]	Bacterial Biotransformation [20]
CC[C@H](C)C(=O)O[C@H]1CCC=C2C=C[C@H](C)[C@H](CC[C@@H]3C[C@@H](O)CC(=O)O3)[C@H]21 [MEVASTATIN]	Compound NOT metabolized	Compound NOT metabolized	Compound metabolized	Compound metabolized	Compound metabolized	Compound metabolized	Compound NOT metabolized	Compound metabolized	Compound metabolized	Compound metabolized	Compound metabolized	Compound metabolized	Compound NOT metabolized	Compound metabolized	Compound metabolized	Compound NOT metabolized	Compound metabolized	Compound NOT metabolized	Compound metabolized	Compound metabolized
CN1[C@@H]2CC[C@H]1C[C@@H](OC(=O)c1c[nH]c3ccccc13)C2 [TROPISETRON]	Compound NOT metabolized	Compound NOT metabolized	Compound NOT metabolized	Compound NOT metabolized	Compound NOT metabolized	Compound NOT metabolized	Compound NOT metabolized	Compound NOT metabolized	Compound NOT metabolized	Compound NOT metabolized	Compound NOT metabolized	Compound NOT metabolized	Compound NOT metabolized	Compound NOT metabolized	Compound NOT metabolized	Compound NOT metabolized	Compound NOT metabolized	Compound NOT metabolized	Compound NOT metabolized	Compound NOT metabolized
C[C@]12CCC(=O)C=C1[C@@H]1C[C@@H]1[C@H]1[C@@H]3[C@@H]4C[C@@H]4[C@@]4(CCC(=O)O4)[C@@]3(C)CC[C@@H]12 [DROSPIRENONE]	Compound metabolized	Compound metabolized	Compound metabolized	Compound metabolized	Compound metabolized	Compound metabolized	Compound NOT metabolized	Compound metabolized	Compound metabolized	Compound metabolized	Compound metabolized	Compound metabolized	Compound metabolized	Compound metabolized	Compound metabolized	Compound metabolized	Compound metabolized	Compound NOT metabolized	Compound NOT metabolized	Compound metabolized
CC(C)c1nc(N(C)S(C)(=O)=O)nc(-c2ccc(F)cc2)c1/C=C/[C@@H](O)C[C@@H](O)CC(=O)[O-].CC(C)c1nc(N(C)S(C)(=O)=O)nc(-c2ccc(F)cc2)c1/C=C/[C@@H](O)C[C@@H](O)CC(=O)[O-].[Ca+2] [ROSUVASTATIN CALCIUM]	Compound NOT metabolized	Compound NOT metabolized	Compound metabolized	Compound metabolized	Compound metabolized	Compound metabolized	Compound metabolized	Compound metabolized	Compound metabolized	Compound metabolized	Compound NOT metabolized	Compound metabolized	Compound metabolized	Compound metabolized	Compound metabolized	Compound NOT metabolized	Compound metabolized	Compound NOT metabolized	Compound NOT metabolized	Compound metabolized
CC(C)NCC(O)COc1ccc(CC(N)=O)cc1 (stereo not given) [ATENOLOL]	Compound NOT metabolized	Compound NOT metabolized	Compound metabolized	Compound NOT metabolized	Compound NOT metabolized	Compound metabolized	Compound metabolized	Compound NOT metabolized	Compound NOT metabolized	Compound NOT metabolized	Compound NOT metabolized	Compound NOT metabolized	Compound NOT metabolized	Compound NOT metabolized	Compound NOT metabolized	Compound NOT metabolized	Compound NOT metabolized	Compound metabolized	Compound NOT metabolized	Compound metabolized
COc1ccc2cc([C@H](C)C(=O)O)ccc2c1 [NAPROXEN]	Compound NOT metabolized	Compound NOT metabolized	Compound metabolized	Compound metabolized	Compound metabolized	Compound metabolized	Compound metabolized	Compound metabolized	Compound metabolized	Compound metabolized	Compound metabolized	Compound metabolized	Compound metabolized	Compound metabolized	Compound metabolized	Compound metabolized	Compound metabolized	Compound metabolized	Compound NOT metabolized	Compound metabolized
CCOC(=O)[C@H](CCc1ccccc1)N[C@@H](C)C(=O)N1Cc2ccccc2C[C@H]1C(=O)O	Compound NOT metabolized	Compound metabolized	Compound metabolized	Compound metabolized	Compound metabolized	Compound metabolized	Compound metabolized	Compound metabolized	Compound metabolized	Compound metabolized	Compound metabolized	Compound metabolized	Compound metabolized	Compound metabolized	Compound metabolized	Compound metabolized	Compound metabolized	Compound NOT metabolized	Compound NOT metabolized	Compound metabolized
C#C[C@]1(OC(C)=O)CC[C@H]2[C@@H]3CCC4=C/C(=N/O)CC[C@@H]4[C@H]3CC[C@@]21CC [NORGESTIMATE]	Compound NOT metabolized	Compound NOT metabolized	Compound metabolized	Compound metabolized	Compound metabolized	Compound metabolized	Compound metabolized	Compound metabolized	Compound metabolized	Compound metabolized	Compound NOT metabolized	Compound metabolized	Compound NOT metabolized	Compound metabolized	Compound metabolized	Compound metabolized	Compound metabolized	Compound NOT metabolized	Compound metabolized	Compound NOT metabolized
